Patent US20020198379A1, “Active compound from a sponge” (Pharma Mar, s.a., priority 1993, published 2002)
Converted amounts (≈) assume the structure as drawn.

Key:
Penicillium notatum = test: antifungal disk assay, Penicillium notatum; assay type: cell-based; settings: Penicillium chrysogenum, 50 μg/disk
[1] = test system: primary culture of murine lymphocytes; test: cytotoxicity assay against primary culture of murine lymphocytes; assay type: cell-based; settings: Mus musculus, Lymphocyte
KB = test: in vitro antitumor activity, KB tumour cells; assay type: cell-based; settings: Homo sapiens
LD50 i.p. in mice = settings: mouse, in vivo, ip
pH stability = assay type: physicochemical
Procedure: Palau'amine was isolated from the sponge as follows. Extraction of the lyophilized sponge (600 g) with MeOH (6 L) and dissolution of the water soluble residue after evaporation yielded 900 ml of an aqueous extract. [The dust from the lyophilized sponge caused a powerful allergic reaction, which entailed severe shortness of breath for about four hours; the effect largely disappeared within 24 hours]. […] Repeated LH-20 chromatography (MeOH) of the 0.5 fraction, after desalting by dissolving in EtOH, furnished essentially pure palau'amine, presumably as the hydrochloride, (14 mg, 0.01% dry weight) as an optically active, off-white amorphous powder that decomposed prior to melting. Further purification of palau'amine could be effected by HPLC [YMC aqueous C18, H2O/MeCN (90:10), 0.1% TFA].

[2] = test system: human colon carcinoma HT-29; test: in vitro antitumor activity, HT-29 tumour cells; assay type: cell-based
Procedure: (§1) The antitumor activities of this compound have been determined “in vitro” in cell cultures of human lung carcinoma A-549 and human colon carcinoma HT-29. The procedure was carried out using the methodology described by Raymond J. Bergeron et al. Biochem. Bioph. Res. Comm. 1984, 121(3), 848-854 and by Alan C. Schroeder et al. J. Med. Chem. 1981, 24 1078-1083.
(§2) The compound is active against the following tumour cells at the inhibiting concentrations noted: […]

P-388 = test: in vitro antitumor activity, P-388 tumour cells; assay type: cell-based; settings: Mus musculus, P388
[3] = test system: mixed lymphocyte reaction (MLR); test: mixed lymphocyte reaction (MLR); assay type: cell-based; settings: read-out: IC
B. subtilis = test: antibiotic disk assay, B. subtilis; assay type: cell-based; settings: 10 μg/disk
S. aureus = test: antibiotic disk assay, S. aureus; assay type: cell-based; settings: 10 μg/disk
[4] = test system: human lung carcinoma A-549; test: in vitro antitumor activity, A-549 tumour cells; assay type: cell-based; settings: A549
Procedure: as §1, §2

With `NC[C@H]1[C@H]2CN3C(=O)c4cccn4[C@H]4N=C(N)NC43[C@H]2[C@@]2(N=C(N)N[C@@H]2O)[C@@H]1Cl` (stereo partly drawn) [palau'amine] the zone of inhibition at 50 µg/disc (Penicillium notatum) was 24 mm, the IC50 [1] was 1.5 µg/mL (≈ 3.57 µM) and the IC50 (KB) was 10 µg/mL (≈ 23.8 µM). For the same compound, the LD50 (LD50 i.p. in mice) was 13 mg/kg, the “stability >pH 6.5” value (pH stability; >pH 6.5) was “decomposes rapidly” and the stability in acid (pH stability; in acid) was “quite stable”. For the same compound, the IC50 [2] was 2 µg/mL (≈ 4.76 µM), the IC50 (P-388) was 0.1 µg/mL (≈ 0.238 µM) and the IC50 [3] was < 0.018 µg/mL. The antibiotic activity (B. subtilis) was “antibiotic activity”, the antibiotic activity (S. aureus) was “antibiotic activity” and the IC50 [4] was 0.2 µg/mL (≈ 0.476 µM).
